According to patent US6969738B2, “Malic acid diester surfactants” (Air Products and Chemicals, Inc., priority 1999, dated 2005):

Columns and labels:
Assay type in all cases: physicochemical
[1] = Dynamic surface tension of aqueous solutions, maximum bubble pressure method; conditions: for γ(0.1 wt % solution) (1 b/s) / γ(0.1 wt % solution) (6 b/s) / pC20 / limiting γ (0.1 b/s) / limiting γ (1 b/s) / limiting γ (6 b/s) / limiting γ (20 b/s): 25° C.; for pC20: negative logarithm of molar concentration giving 52.1 dyne/cm at 0.1 b/s; for limiting γ (0.1 b/s) / limiting γ (1 b/s) / limiting γ (6 b/s) / limiting γ (20 b/s): water
Description: In the following Examples dynamic surface tension data were obtained for aqueous solutions of various compounds using the maximum bubble pressure method at bubble rates from 0.1 bubbles/second (b/s) to 20 b/s. […] In practical terms, high bubble rates correspond to high printing speeds in lithographic printing, high spray or roller velocities in coating applications, and rapid application rates for agricultural products.
(§1) Solutions of the materials of Examples 1-10 in distilled water were prepared. […] The pC20 value is defined as the negative logarithm of the molar concentration of surfactant required to decrease the surface tension of an aqueous solution to […], that is, 20 dyne/cm below that of pure water when the measurement is performed at 0.1 b/s. This value is a measure of the efficiency of a surfactant. […] In addition, the relative efficiency of surfactants can be obtained by comparing surface tension reduction of solutions containing the same amount of different surfactants. Such data is given for 0.1 wt % solutions of the dialkylmalates at 1.0 and 6.0 bubbles/second (b/s). The solubility limit was determined by intersection of the linear portion of a surface tension/In concentration curve with the limiting surface tension as is described in many textbooks. The limiting surface tensions at 0.1, 1, 6 and 20 b/s represent the lowest surface tensions in water which can be achieved at the given surface creation rates for a given surfactant regardless of the amount of surfactant used and is used to evaluate the effectiveness of a surfactant. These values give information about the relative ability of a surfactant to reduce surface defects under near-equilibrium conditions (0.1 b/s) through very dynamic conditions (20 b/s). Lower surface tensions would allow the elimination of defects upon application of a formulation onto lower energy surfaces.

[2] = Solubility limit in water from surface tension/ln concentration curve; conditions: distilled water, 25° C.
Experimental: as §1

[3] = Foam test of 0.1 wt % solutions, procedure based upon ASTM D 1173-53; conditions: 0.1 wt % solution
Experimental: The foaming properties of 0.1 wt % solutions of the dialkylmalate surfactants of this invention were examined using a procedure based upon ASTM D 1173-53. In this test, a 0.1 wt % solution of the surfactant is added from an elevated foam pipette to a foam receiver containing the same solution. The foam height is measured at the completion of the addition (“Initial Foam Height”) and the time required for the foam to dissipate at the air-liquid interface (“Time to 0 Foam”) is recorded. This test provides a comparison between the foaming characteristics of various surfactant solutions. In general, in coatings, inks, adhesives, fountain solutions and agricultural compositions, foam is undesirable because it complicates handling and can lead to coating and print defects, and to inefficient application of agricultural materials.

Row | SMILES | γ(0.1 wt % solution) (1 b/s) [1] [dyne/cm] | γ(0.1 wt % solution) (6 b/s) [1] [dyne/cm] | pC20 [1] | limiting γ (0.1 b/s) [1] [Dyne/cm] | limiting γ (1 b/s) [1] [Dyne/cm] | limiting γ (6 b/s) [1] [Dyne/cm] | limiting γ (20 b/s) ([1]; 20 b/s) [Dyne/cm] | solubility limit [2] [Weight %] | initial foam [3] [cm] | time to zero foam [3] [s] | limiting γ (20 b/s) ([1]; 20 b/s, listed as diisopropyl-(S)-(−)-malate) [Dyne/cm] | decrease in the limiting surface tension compared to dibutyl-DL-malate ([1]; 20 b/s) [dyne/cm] | limiting γ (20 b/s) ([1]; 20 b/s, listed as diisobutyl-DL-malate)
1 | CCCCCOC(=O)CC(O)C(=O)OCCCCC (racemic) [Example 5, Dipentyl-DL-malate] | 38.2 | 40.5 | 3.52 | 36.8 | 38.2 | 40.5 | 50.1 | 0.03 | 0.5 | 0.2 |  |  | 
2 | O=C(CC(O)C(=O)OCc1ccccc1)OCc1ccccc1 (racemic) [Example 10, Dibenzyl-DL-malate] | 61.5 | 65.2 | 2.23 | 54.0 | 57.7 | 60.3 | 70.0 | 0.08 | 0 | 0 |  |  | 
3 | CCCCCCOC(=O)CC(O)C(=O)OCCCCCC (racemic) [Example 8, Dihexyl-DL-malate] | 58.8 | 52.0 | 3.25 | 55.6 | 65.2 | 69.3 | 71.2 | 0.005 | 0.5 | 0.1 |  |  | 
4 | CC(C)OC(=O)C[C@H](O)C(=O)OC(C)C [Example 1, Diisopropyl-(S)-(−)-malate] | 59.2 | 60.1 | 1.83 | 33.6 | 33.8 | 34.0 | 35.3 | 5 | 1.3 | 14 | < 34 |  | 
5 | CC(C)CCOC(=O)CC(O)C(=O)OCCC(C)C (racemic) [Example 6, Diisoamyl-DL-malate] | 36.8 | 39.5 | 3.86 | 35.6 | 36.8 | 39.5 | 48.0 | 0.04 | 0.3 | 0.3 |  |  | 
6 | CC(C)CC(C)OC(=O)CC(O)C(=O)OC(C)CC(C)C (racemic) [Example 9, Di(4-methyl-2-pentyl)-DL-malate] | 46.2 | 56.4 | 3.84 | 40.8 | 50.9 | 63.9 | 69.4 | 0.02 | 0 | 0 |  |  | 
7 | CCC(C)OC(=O)CC(O)C(=O)OC(C)CC (racemic) [Example 4, Di-sec-butyl-DL-malate] | 47.8 | 48.5 | 2.77 | 36.5 | 36.7 | 37.3 | 38.1 | 0.6 | 1.0 | 60 |  |  | 
8 | CCCCOC(=O)CC(O)C(=O)OCCCC (racemic) [Example 2, Dibutyl-DL-malate] | 43.8 | 44.8 | 3.04 | 35.8 | 36.0 | 36.5 | 38.6 | 0.3 | 0.9 | 20 |  |  | 
9 | CCC(C)COC(=O)CC(O)C(=O)OCC(C)CC (racemic) [Example 7, Di(2-methylbutyl)-DL-malate] | 38.9 | 41.2 | 3.47 | 37.8 | 38.9 | 41.2 | 49.7 | 0.04 | 1.2 | 0.1 |  |  | 
10 | CC(C)COC(=O)CC(O)C(=O)OCC(C)C (racemic) [Example 3, Diisobutyl-DL-malate] | 44.1 | 45.2 | 3.08 | 33.5 | 33.3 | 33.4 | 35.3 | 0.4 | 0.6 | 0.2 |  | 3.3 | less than 36 Dyne/cm
